Results published in patent publication US20260263644A1, “USE OF POSITRON MYOCARDIAL FATTY ACID METABOLISM IMAGING AGENT AND POSITRON 18F-FDG MYOCARDIAL GLUCOSE IMAGING AGENT IN PET COMBINED IMAGING” (priority 2023, published 2026).

Assays:
normal myocardium = experiment: Separate PET imaging with a single imaging agent, without combination; type: in vivo, Bama miniature pig; details: Comparative Example 3; fasting; each agent administered separately, not in combination; FIGS. 7a, 7b
Method: Each experiment was performed using a Bama miniature pig of about one year old, and the experiment was repeated three times; taking the second experiment of the three experiments as an example: the piglet weighed about 10 kg, and the two imaging agents were administered separately for imaging rather than in combination. The results of separate PET imaging with ^18F-FDG and XTR003 are shown in FIGS. 7a and 7b, respectively.

[1] = test system: anterior wall myocardium with chronic myocardial infarction; experiment: Combined 18F-FDG and XTR003 PET myocardial metabolic imaging under fasting in the chronic myocardial infarction pig model; type: in vivo, Bama miniature pig; details: for uptake in the myocardial infarction area (PET myocardial metabolic image): 18F-FDG 1mCi first
Method: Each experiment used a Bama miniature pig approximately one year old, and the experiment was repeated three times. Taking the second of the three experiments as an example: the piglet weighed approximately 10 kg. A constrictive ring was placed at the site of the left anterior descending coronary artery to gradually induce chronic myocardial infarction in the anterior wall myocardium. Four weeks later, for comparative purposes, a ^99mTc-Sestamibi SPECT myocardial perfusion imaging was performed in the morning (this imaging is the gold standard for assessing viable and scarred myocardium in the infarcted area and was used in this study as a reference for comparing PET imaging results). In the afternoon, a one-day protocol for combined ^18F-FDG and XTR003 PET imaging was performed (with at least 2-hour interval from the SPECT conducted in the morning, during which fasting was maintained). ^18F-FDG PET imaging was performed first, followed by XTR003 PET imaging. The injection doses of the above two agents were 1mCi and 2.5mCi, respectively. XTR003 was injected 1 hour after the ^18F-FDG injection, followed immediately by PET imaging. Each experiment used a Bama miniature pig about one year old, and the experiment was repeated three times. Taking the second of the three experiments as an example: the piglet weighed approximately 11 kg. A constriction ring was placed at the site of the left anterior descending coronary artery to gradually induce chronic myocardial infarction in the anterior wall myocardium. Three weeks later, for comparative purposes, a 99mTc-Sestamibi SPECT myocardial perfusion imaging was performed in the morning. In the afternoon, a one-day protocol combining ^18F-FDG and XTR003 PET imaging was performed, ^18F-FDG PET imaging was performed first, followed by XTR003 PET imaging. The injection doses of the above two agents were 1mCi and 3.1mCi, respectively. Among them, XTR003 was injected 1 hour after the ^18F-FDG injection, followed immediately by PET imaging. A disease animal model was constructed as described in Example 1. After myocardial perfusion imaging, “a one-day protocol combining ^18F-FDG PET and XTR003 PET imaging” was performed, wherein XTR003 was injected one hour after the injection of ^18F-FDG, followed immediately by PET imaging. The only difference between the Comparative Example and Example 1 is that the injection doses of the above two agents were 1 mCi and 0.25 mCi, respectively. The results of the combined ^18F-FDG and XTR003 PET imaging (also used the second experiment out of three replicates as an example) are shown in FIGS. 3a-3b. In the Figs.: An animal model of the disease was constructed as described in Example 1, differing only in the order of imaging; specifically, XTR003 PET imaging was performed first, followed by ^18F-FDG PET imaging. The injection doses of the two agents were 1 mCi and 3 mCi, respectively. In the Figs.: An animal model of the disease was constructed as described in Example 3. After myocardial perfusion, “a one-day protocol combining XTR003 PET and ^18F-FDG PET imaging” was performed, wherein ^18F-FDG was injected one hour after the injection of XTR003, followed immediately by PET imaging. The only difference between the Comparative Example and Example 3 was that the injection doses of the above two agents were 1 mCi and 0.25 mCi, respectively. In the Figs.: The disease animal model was constructed according to the description of Example 1. The only difference from Example 1 was that after the myocardial perfusion imaging, a “two-day protocol combining ^18F-FDG PET and XTR003 PET imaging” was performed instead of the “one-day protocol”. In the Figs.: An animal model of the disease was constructed as described in Example 1. After myocardial perfusion imaging, a “a one-day protocol combining ^18F-FDG PET and XTR003 PET imaging” was performed, wherein XTR003 was injected one hour after the injection of ^18F-FDG, followed immediately by PET imaging. […]

SMILES: CCCCCCCCC([18F])CCCCC1CC1CC(=O)O (stereo not shown) [XTR003]
- visibility of myocardial metabolic images (normal myocardium): can show normal image
- image quality of myocardial metabolic images ([1]; Comparative Example 1, one-day protocol, 18F-FDG 1 mCi first, then XTR003 0.25 mCi, FIGS. 3a-3b): excessive image noise
- image quality of myocardial metabolic images ([1]; Comparative Example 2, one-day protocol, XTR003 1 mCi first, then 18F-FDG 0.25 mCi, FIGS. 5a-5b): normal image quality
- uptake in the myocardial infarction area (PET myocardial metabolic image) ([1]; Example 1, one-day protocol, XTR003 2.5mCi injected 1 hour later, FIGS. 1b-1c): moderate uptake
- uptake in the myocardial infarction area (PET myocardial metabolic image) ([1]; Example 2, one-day protocol, XTR003 3.1mCi injected 1 hour later, FIGS. 2b-2c): no XTR003 uptake
- image quality of myocardial metabolic images ([1]; Example 3, one-day protocol, XTR003 1 mCi first, then 18F-FDG 3 mCi, FIGS. 4a-4b): normal image quality
- image quality of myocardial metabolic images ([1]; Example 4, two-day protocol, FIGS. 6a-6b): normal image quality
